17 molecules from ChEMBL document CHEMBL4616586, “Design, synthesis and biological evaluation of substituted flavones and aurones as potential anti-influenza agents” (Bioorg Med Chem, 2020) can be followed below.

Activity calls are given as the source filed them. The rule behind the calls is not given here.

Data set [1] in a line: Cytotoxicity against dog MDCK cells assessed as reduction in cell viability by MTT assay. The class given is cell-based, Canis lupus familiaris.
The subject of data set [2] is Influenza A virus. Kind of data set: Antiviral activity against Influenza A virus (H1N1) infected in dog MDCK cells assessed as reduction in log2HA titer incubated for 3 to 4 days by CPE assay. It counts as functional, organism-based.
Data set [3] in a line: Selectivity index, ratio of CC50 for dog MDCK cells to EC50 for Influenza A virus (H1N1) infected in dog MDCK cells. It counts as toxicity, cell-based. Particulars: read-out: Ratio CC50/EC50.
The target of data set [4] is Neuraminidase (Influenza A virus (A/Puerto Rico/8/1934(H1N1)), UniProt P03468). Kind of data set: Inhibition of Influenza A virus (H1N1) neuraminidase.
Sequence of Neuraminidase (Influenza A virus (A/Puerto Rico/8/1934(H1N1)), UniProt P03468) (P03468 whole entry): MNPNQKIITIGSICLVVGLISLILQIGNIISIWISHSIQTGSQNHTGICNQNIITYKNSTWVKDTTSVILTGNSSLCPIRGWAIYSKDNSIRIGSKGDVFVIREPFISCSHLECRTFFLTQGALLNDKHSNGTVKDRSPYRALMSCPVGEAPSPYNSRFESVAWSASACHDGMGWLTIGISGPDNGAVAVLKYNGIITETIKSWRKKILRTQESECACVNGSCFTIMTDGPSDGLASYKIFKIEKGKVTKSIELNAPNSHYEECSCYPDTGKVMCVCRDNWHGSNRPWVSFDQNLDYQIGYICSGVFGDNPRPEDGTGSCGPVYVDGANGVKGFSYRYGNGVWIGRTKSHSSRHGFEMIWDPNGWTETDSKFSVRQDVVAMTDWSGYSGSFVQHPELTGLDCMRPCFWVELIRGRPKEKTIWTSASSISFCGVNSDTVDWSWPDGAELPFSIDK
In data set [5] the target is Neuraminidase (Influenza A virus (A/Puerto Rico/8/1934(H1N1))) (UniProt P03468). Kind of data set: Non-competitive inhibition of Influenza A virus (H1N1) neuraminidase by Lineweaver-Burk plot analysis.
Sequence of Neuraminidase (Influenza A virus (A/Puerto Rico/8/1934(H1N1))) (P03468 whole entry): as above

Take `O=c1cc(-c2ccc(Cl)cc2)oc2ccccc12`: the 50% cytotoxic concentration (CC50) in data set [1] is 115 µM. Moreover, the EC50 in data set [2] is 0.0359 µM. Besides, the selectivity ratio in data set [3] turned out to be 3210. In data set [4], the midpoint of inhibition, the IC50, lay at 27.7 µM.

For the molecule `O=c1cc(-c2cccc(Cl)c2)oc2ccccc12`, the CC50 in data set [1] stood at 174 µM. In data set [2], the half-maximal effective concentration (EC50) is 0.0477 µM. Further, the selectivity ratio in data set [3] amounted to 3650. This molecule also displayed a half-maximal inhibitory concentration (IC50) in data set [4] of 32.6 µM.

Turning to `COc1ccc(-c2cc(=O)c3ccccc3o2)cc1` [4'-METHOXYFLAVONE], in data set [1], the CC50 was found to be 192 µM. In addition, the EC50 in data set [2] was 0.00936 µM. Also, in data set [3], the selectivity ratio worked out at 20500. The IC50 in data set [4] is 8.74 µM. Besides, in data set [5], the inhibition result was “Active”.

For `COc1ccccc1/C=C1\Oc2ccccc2C1=O` [(Z)-2'-METHOXYAURONE], in data set [1], the half-maximal cytotoxic concentration (CC50) is 273 µM.

On to `COc1ccccc1-c1cc(=O)c2ccccc2o1`, for which the CC50 in data set [1] worked out at 171 µM.

Take `O=C1/C(=C/c2ccc(Cl)cc2)Oc2ccccc21`: the half-maximal cytotoxic concentration (CC50) in data set [1] was found to be 272 µM. Moreover, in data set [2], the EC50 came out at 0.0514 µM. Further, the selectivity ratio in data set [3] was determined as 5300. Moreover, in data set [4], the 50% inhibitory concentration (IC50) was 45.4 µM.

Regarding `O=c1cc(-c2cccc([N+](=O)[O-])c2)oc2ccccc12`, the half-maximal cytotoxic concentration (CC50) in data set [1] stood at 269 µM. Also, in data set [2], the concentration giving a half-maximal response (EC50) was 0.0141 µM. Moreover, the selectivity ratio in data set [3] is 19100. The midpoint of inhibition in data set [4], the IC50, lay at 15.4 µM.

In the case of `O=c1cc(-c2ccccc2Cl)oc2ccccc12`, the half-maximal cytotoxic concentration (CC50) in data set [1] was found to be 388 µM.

Regarding `COc1cccc(-c2cc(=O)c3ccccc3o2)c1`, in data set [1], the 50% cytotoxic concentration (CC50) turned out to be 263 µM. Further, in data set [2], the EC50 stood at 0.0126 µM. In data set [3], the selectivity ratio is 21000. Besides, the half-maximal inhibitory concentration (IC50) in data set [4] was determined as 10.8 µM.

With `COc1ccc(/C=C2\Oc3ccccc3C2=O)cc1` [4'-METHOXY-AURONE], the CC50 in data set [1] was determined as 169 µM. For the same molecule, the concentration for a half-maximal effect (EC50) in data set [2] turned out to be 0.0353 µM. In addition, the selectivity ratio in data set [3] came to 4800. In addition, in data set [4], inhibition was half-maximal at 37.5 µM (IC50). In addition, the inhibition result in data set [5] was “Active”.

On to `CCC(CC)O[C@@H]1C=C(C(=O)O)C[C@H](N)[C@H]1NC(C)=O` [OSELTAMIVIR CARBOXYLATE], for which, in data set [1], the 50% cytotoxic concentration (CC50) stood at 713 µM. For the same molecule, the concentration giving a half-maximal response (EC50) in data set [2] stood at 0.0071 µM.

For `O=c1c(O)c(-c2ccc(O)c(O)c2)oc2cc(O)cc(O)c12` [QUERCETIN], the 50% effective concentration (EC50) in data set [2] worked out at 0.0845 µM. Also, the selectivity ratio in data set [3] was found to be 3010. In data set [4], this molecule returned an IC50 of 7.75 µM. Moreover, in data set [5], the inhibition entry is “Active”.

On to `O=C1/C(=C/c2ccccc2Cl)Oc2ccccc21`, for which the half-maximal cytotoxic concentration (CC50) in data set [1] stood at 339 µM.

Turning to `O=C1/C(=C/c2cccc(Cl)c2)Oc2ccccc21`, in data set [1], the CC50 came to 26.9 µM.

Consider `O=C1/C(=C/c2cccc([N+](=O)[O-])c2)Oc2ccccc21`, for which the CC50 in data set [1] was found to be 396 µM.

With `O=C1/C(=C/c2ccc([N+](=O)[O-])cc2)Oc2ccccc21`, the half-maximal cytotoxic concentration (CC50) in data set [1] came out at 213 µM. The 50% effective concentration (EC50) in data set [2] stood at 0.0463 µM. Moreover, the selectivity ratio in data set [3] was found to be 4600. For the same molecule, half-maximal inhibition in data set [4] (IC50) was put at 41 µM.

Consider `COc1cccc(/C=C2\Oc3ccccc3C2=O)c1` [3'-METHOXY-AURONE], for which the CC50 in data set [1] turned out to be 7.81 µM.
